In this assay the target is T1, OX1 (Homo sapiens, UniProt O43613).
T1 construct: expressed in transfected cells; host or cells: CHO (CHO-OX1, kept under selection antibiotic)
T1 sequence (O43613 1-425): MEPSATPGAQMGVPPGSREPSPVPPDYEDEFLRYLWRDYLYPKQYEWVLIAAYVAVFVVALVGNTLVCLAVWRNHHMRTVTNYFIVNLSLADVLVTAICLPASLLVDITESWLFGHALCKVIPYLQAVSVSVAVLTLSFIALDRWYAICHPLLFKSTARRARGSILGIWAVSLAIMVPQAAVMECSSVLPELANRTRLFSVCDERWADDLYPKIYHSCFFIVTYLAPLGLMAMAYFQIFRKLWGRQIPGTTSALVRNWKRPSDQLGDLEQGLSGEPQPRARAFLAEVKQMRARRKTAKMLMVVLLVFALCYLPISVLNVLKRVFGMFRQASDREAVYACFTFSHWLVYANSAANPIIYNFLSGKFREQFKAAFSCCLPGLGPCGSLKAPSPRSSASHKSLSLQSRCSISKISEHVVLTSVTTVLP
The experiment in a line: Orexin receptor cell-based functional assay, [Ca2+]i by FLIPR, CHO-OX1 cells. As to conditions: CHO-OX1 cells, EC90 of OXA. Put shortly:
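CHO cells expressing human OX1 or OX2 loaded with calcium dye plus 2.5 mM probenecid at 37° C (calcium4, 30 min, or calcium6, 2 h), then exposed to compounds (0.1 nM-10 μM) for 30 min. Intracellular Ca2+ measured on FLIPR; antagonist format.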

Where [1] appears, read: Table 2, read-out: IC50 Bioactivity OX1.
[2] abbreviates: [Ca2+]i by FLIPR, antagonist dose-range 0.1 nM-10 μM, read-out: OX1.

Read-outs that look alike come from different tables or passages of the source. Some results are limits rather than exact numbers.

Regarding `O=C(NCC1CCC(F)CN1C(=O)c1ccccc1-c1ccccc1)c1cccc2cccnc12` (single isomer, unassigned) [Example 38, N-((1-(Biphenylcarbonyl)-5-fluoropiperidin-2-yl)methyl)quinoline-8-carboxamide], the IC50 under setting [1] was found to be 4 nM. Turning to `Cc1nc(-c2ccccc2)c(C(=O)N2CC3CCCCC3C2CNC(=O)c2cccc3cccnc23)s1` (single isomer, unassigned) [Example 65], the IC50 under setting [1] was greater than 2000 nM. Same read-out and setting: to `Cc1nc(C(=O)N2CC3CCCCC3C2CNC(=O)c2cccc3occc23)c(-c2ccccc2)s1` (single isomer, unassigned) [Example 70] belongs 170 nM.

Take `Cc1nc(C(=O)N2CC3CCCCC3C2CNC(=O)c2cccc3occc23)c(-c2ccccc2)s1` (single isomer, unassigned) [Example 71]: the IC50 under setting [1] is 40 nM. `O=C(NC[C@@H]1C[C@H](F)CN1C(=O)c1ccccc1-c1ccccc1)c1cccc2cccnc12` [Example 5, N-(((2S,4S)-1-(Biphenylcarbonyl)-4-fluoropyrrolidin-2-yl)methyl)quinoline-8-carboxamide]: the IC50 under setting [1] stood at 6 nM. `O=C1C[C@@H](CNC(=O)c2cccc3cccnc23)N(C(=O)c2ccccc2-c2ccccc2)C1` [Example 6, (S)—N-((1-(Biphenylcarbonyl)-4-oxopyrrolidin-2-yl)methyl)quinoline-8-carboxamide]: the IC50 under setting [1] was 30 nM. Regarding `O=C(NC[C@@H]1C[C@@H](F)CN1C(=O)c1ccccc1-c1ccccc1)c1cccc2cccnc12` [Example 128, N-(((2S,4R)-1-(Biphenylcarbonyl)-4-fluoropyrrolidin-2-yl)methyl)quinoline-8-carboxamide], the IC50 under setting [1] is 35 nM.

Regarding `Cc1nc(-c2ccccc2)c(C(=O)N2CC[C@H](O)[C@H]2CNC(=O)c2cccc3cccnc23)s1` [Example 130, N-(((2R,3S)-3-Hydroxy-1-(2-methyl-4-phenylthiazole-5-carbonyl)pyrrolidin-2-yl)methyl)quinoline-8-carboxamide], under setting [1], the IC50 was determined as 6 nM. For `CC(=O)O[C@H]1C[C@@H](CNC(=O)c2cccc3cccnc23)N(C(=O)c2ccccc2-c2ccccc2)C1` [Example 131, (3S,5S)-1-([1,1′-Biphenyl]-2-carbonyl)-5-((quinoline-8-carboxamido)methyl)pyrrolidin-3-yl acetate], the IC50 under setting [1] was found to be 53 nM. For `Cc1nc(-c2ccccc2)c(C(=O)N2CCC(=O)[C@H]2CNC(=O)c2cccc3cccnc23)s1` [Example 132, (R)—N-((1-(2-Methyl-4-phenylthiazole-5-carbonyl)-3-oxopyrrolidin-2-yl)methyl)quinoline-8-carboxamide], under setting [1], the IC50 stood at 230 nM.

In the case of `Cc1nc(-c2ccccc2)c(C(=O)N2CCC(F)(F)[C@H]2CNC(=O)c2cccc3cccnc23)s1` [Example 133, (R)—N-((3,3-Difluoro-1-(2-methyl-4-phenylthiazole-5-carbonyl)pyrrolidin-2-yl)methyl)quinoline-8-carboxamide], the IC50 under setting [1] came to 12 nM. For `Cc1nc(-c2ccccc2)c(C(=O)N2CC[C@@H](O)C[C@H]2CNC(=O)c2cccc3cccnc23)s1` [Example 134, N-(((2S,4R)-4-Hydroxy-1-(2-methyl-4-phenylthiazole-5-carbonyl)piperidin-2-yl)methyl)quinoline-8-carboxamide], under setting [1], the IC50 worked out at 5 nM. As to `Cc1ccc(-c2cnn(C)c2)c(C(=O)N2CCC[C@@H](C)[C@H]2CNc2ccc(F)cn2)c1` [Example A44, ((2S,3R)-2-(((5-Fluoropyridin-2-yl)-amino)methyl)-3-methylpiperidin-1-yl)(5-methyl-2-(1-methyl-1H-pyrazol-4-yl)phenyl)methanone], the IC50 under setting [2] was found to be 11 nM. The same measure, in the same setting: in the case of `Cc1ccc(NC[C@@H]2[C@H](C)CCCN2C(=O)c2cc(C)ccc2-c2cnn(C)c2)nc1` [Example A49, ((2S,3R)-3-Methyl-2-(((5-methylpyridin-2-yl)amino)methyl)piperidin-1-yl)(5-methyl-2-(1-methyl-1H-pyrazol-4-yl)phenyl)methanone] it was 500 nM. For `Cc1ccc(-c2ccnn2C)c(C(=O)N2CCC[C@@H](C)[C@H]2CNc2nc3cc(Cl)ccc3o2)c1` [Example A50, ((2S,3R)-2-(((5-Chlorobenzo[d]oxazol-2-yl)amino)methyl)-3-methylpiperidin-1-yl)(5-methyl-2-(1-methyl-1H-pyrazol-5-yl)phenyl)methanone], under setting [2], the IC50 is 230 nM. For the compound `Cc1ccc(-n2cnc(C(F)(F)F)n2)c(C(=O)N2CCC[C@@H](C)[C@H]2CNc2ccc(C#N)cn2)c1` [Example A51, 6-((((2S,3R)-3-Methyl-1-(5-methyl-2-(3-(trifluoromethyl)-1H-1,2,4-triazol-1-yl)benzoyl)piperidin-2-yl)methyl)amino)nicotinonitrile], under setting [2], the IC50 was greater than 1000 nM. The same measure, in the same setting: to `Cc1ccc(-c2ccnc(C)c2)c(C(=O)N2CCC[C@@H](C)[C@H]2CNc2ccc(F)cn2)c1` [Example A53, ((2S,3R)-2-(((5-Fluoropyridin-2-yl)amino)methyl)-3-methylpiperidin-1-yl)(5-methyl-2-(2-methylpyridin-4-yl)phenyl)methanone] belongs 670 nM.

Consider `Cc1ccc(-c2ccccn2)c(C(=O)N2CCC[C@@H](C)[C@H]2CNc2ccc(F)cn2)c1` [Example A58, ((2S,3R)-2-(((5-Fluoropyridin-2-yl)amino)methyl)-3-methylpiperidin-1-yl)(5-methyl-2-(pyridin-2-yl)phenyl)methanone], for which the IC50 under setting [2] came out at 230 nM. On to `Cc1ccc(-c2ccnn2C)c(C(=O)N2CCC[C@@H](C)[C@H]2CNc2ccc(F)cn2)c1` [Example A61, ((2S,3R)-2-(((5-Fluoropyridin-2-yl)amino)methyl)-3-methylpiperidin-1-yl)(5-methyl-2-(1-methyl-1H-pyrazol-5-yl)phenyl)methanone], for which the IC50 under setting [2] stood at 1100 nM. Turning to `Cc1ccc(-n2cnc(C(F)(F)F)n2)c(C(=O)N2CCC[C@@H](C)[C@H]2CNc2nc3cc(Cl)ccc3o2)c1` [Example A64, ((2S,3R)-2-(((5-Chlorobenzo[d]oxazol-2-yl)amino)methyl)-3-methylpiperidin-1-yl)(5-methyl-2-(3-(trifluoromethyl)-1H-1,2,4-triazol-1-yl)phenyl)methanone], the IC50 under setting [2] was greater than 1000 nM. With `Cc1ccc(-n2nccn2)c(C(=O)N2CC3CCCC3C2CNc2ccc(C(F)(F)F)cn2)c1` (stereo not shown) [Example A69, (5-Methyl-2-(2H-1,2,3-triazol-2-yl)phenyl)(1-(((5-(trifluoromethyl)pyridin-2-yl)amino)methyl)hexahydrocyclopenta[c]pyrrol-2(1H)-yl)methanone], the IC50 under setting [2] was determined as 21 nM. The same measure, in the same setting: in the case of `Cc1ccc(-c2cnn(C)c2)c(C(=O)N2CC3CCCC3C2CNc2ccc(C(F)(F)F)cn2)c1` (stereo not shown) [Example A71, (5-Methyl-2-(1-methyl-1H-pyrazol-4-yl)phenyl)(1-(((5-(trifluoromethyl)pyridin-2-yl)amino)methyl)hexahydrocyclopenta[c]pyrrol-2(1H)-yl)methanone] it was 70 nM. Regarding `COc1c(F)cccc1C(=O)N1CCC[C@@H](C)[C@H]1CNc1ccc(C(F)(F)F)cn1` [Example A75, (3-Fluoro-2-methoxyphenyl)((2S,3R)-3-methyl-2-(((5-(trifluoromethyl)pyridin-2-yl)amino)methyl)piperidin-1-yl)methanone], under setting [2], the IC50 came to 1300 nM. Same read-out and setting: to `Cc1nc(C(=O)N2CCCC3CN(c4nc5ccc(Cl)cc5o4)CC32)c(-c2ccc(F)cc2)s1` (stereo not shown) [Example A76, (6-(6-Chlorobenzo[d]oxazol-2-yl)octahydro-1H-pyrrolo[3,4-b]pyridin-1-yl)(5-(4-fluorophenyl)-2-methylthiazol-4-yl)methanone] belongs greater than 1000 nM; to `Cc1nc(C(=O)N2CCCC3CN(c4ccc(C(F)(F)F)cn4)CC32)c(-c2ccc(F)cc2)s1` (stereo not shown) [Example A77, (5-(4-Fluorophenyl)-2-methylthiazol-4-yl)(6-(5-(trifluoromethyl)pyridin-2-yl)octahydro-1H-pyrrolo[3,4-b]pyridin-1-yl)methanone], greater than 1000 nM; to `Cc1nc(C(=O)N2CCC[C@@H](C)[C@H]2CNc2ccc(C(F)(F)F)cn2)c(-c2cccc(F)c2)s1` [Example A109, (5-(3-Fluorophenyl)-2-methylthiazol-4-yl)((2S,3R)-3-methyl-2-(((5-(trifluoromethyl)pyridin-2-yl)amino)methyl)piperidin-1-yl)methanone], less than 10 nM. On the same count and under the same terms, to `Cc1ccc(-c2cnn(C)c2)c(C(=O)N2CCC[C@@H](C)[C@H]2COc2ccc(C(F)(F)F)cn2)c1` [Example A114, ((2S,3R)-3-Methyl-2-(((5-(trifluoromethyl)pyridin-2-yl)oxy)methyl)piperidin-1-yl)(5-methyl-2-(1-methyl-1H-pyrazol-4-yl)phenyl)methanone] belongs greater than 1000 nM; to `Cc1ccc(-n2nccn2)c(C(=O)N2CCC[C@@H](C)[C@H]2CNc2nc3ccccc3o2)c1` [Example A180, ((2S,3R)-2-((Benzo[d]oxazol-2-ylamino)methyl)-3-methylpiperidin-1-yl)(5-methyl-2-(2H-1,2,3-triazol-2-yl)phenyl)methanone], 4 nM.

The values are drawn from US9440982B2 (Eolas Therapeutics, Inc., priority 2012, dated 2016).
